Measured values reported in the RepoRT retention time repository (doi:10.1016/j.chroma.2015.11.014).

experiment: RP, Agilent ZORBAX Eclipse Plus C18, 150 × 2.1 mm, 3.5 µm, 40 °C, 0.3 mL/min, estimated dead time 1.1 min; A: water + 0.1% formic acid; B: acetonitrile + 0.1% formic acid; gradient (min/%B) 0/2 1/2 2/20 16.5/98 22/98; settings: stereoisomer not certain

| Structure (SMILES) | LC retention time [min] |
| --- | --- |
| CC(C)NCC(O)COc1cccc2ccccc12 (stereo unspecified) | 7.36 |
| CC(=O)Nc1ccc(O)cc1 | 5.02 |
| S=P(c1ccccc1)(c1ccccc1)c1ccccc1 | 14.5 |
| O=c1[nH]cnc2c1ncn2C1CC(O)C(CO)O1 (stereo unspecified) | 4.18 |
| Cc1cccc(Nc2ccncc2S(=O)(=O)NC(=O)NC(C)C)c1 | 7.63 |
| Cc1cccc(C(=O)O)c1 | 8.59 |
| CN1CCCC1=O | 4.39 |
| O=C(O)CC1(C(=O)O)CCCCC1 | 7.49 |
| COC(=O)C(Cc1ccccc1)NC(=O)C(N)CC(=O)O (stereo unspecified) | 5.76 |
| CN(C)CC(c1ccc(O)cc1)C1(O)CCCCC1 (stereo unspecified) | 5.37 |
| O=c1[nH]c(=O)c2ncn(C3OC(CO)C(O)C3O)c2[nH]1 (stereo unspecified) | 4.35 |
| O=P(Cc1ccccc1)(Cc1ccccc1)Cc1ccccc1 | 11.6 |
| CC1=CC(=O)NS(=O)(=O)O1 | 4.12 |
| CCCC(=O)Nc1ccc(OCC(O)CNC(C)C)c(C(C)=O)c1 (stereo unspecified) | 5.96 |
| COC(=O)CCCC[P+](c1ccccc1)(c1ccccc1)c1ccccc1 | 8.3 |
| CCCCC1C(=O)N(c2ccccc2)N(c2ccccc2)C1=O | 13.1 |
| CN(C)Cc1ccccc1 | 4.42 |
| O=c1[nH]c(=O)c2[nH]c(=O)[nH]c2[nH]1 | 2.08 |
| c1ccc(C[P+](c2ccccc2)(c2ccccc2)c2ccccc2)cc1 | 8.71 |
| CC1(C)CCCC(C)(C)N1 | 4.82 |
| COc1cccc(C2(O)CCCCC2C[N+](C)(C)[O-])c1 (stereo unspecified) | 6.33 |
| COCC(=O)Nc1cc(Sc2ccccc2)ccc1N=C(NC(=O)OC)NC(=O)OC | 13.1 |
| CCN(CC)C(=O)c1cccc(C)c1 | 10.4 |
| CCCCCCCCCCCCCCCC[N+](C)(C)C | 12.8 |
| CCN1CCCC1CNC(=O)c1cc(S(=O)(=O)CC)c(N)cc1O (stereo unspecified) | 5.62 |

| Structure (SMILES) | LC retention time [min] |
| --- | --- |
| CC(C)c1ccccc1OP(=O)(Oc1ccccc1)Oc1ccccc1C(C)C | 17.4 |
| CC12C=CC(=O)C=C1CCC1C2C(O)CC2(C)C1CCC2(O)C(=O)CO (stereo unspecified) | 8.43 |
| CCCCC(CC)COP(=O)(Oc1ccccc1)Oc1ccccc1 (stereo unspecified) | 17 |
| CCP(=O)(CC)CC | 5.15 |
| CCCCCCCCCCCCCCCC(=O)OCC(O)COP(=O)([O-])OCC[N+](C)(C)C (stereo unspecified) | 14.9 |
| COc1ccc2nc(SCc3[nH]cc(C)c(=O)c3C)[nH]c2c1 | 6.17 |
| Cc1cc(NS(=O)(=O)c2ccc(N)cc2)no1 | 7.25 |
| CC(C)CC(C)Nc1ccc(Nc2ccccc2)cc1 (stereo unspecified) | 9.19 |
| CC(C)=CC[P+](c1ccccc1)(c1ccccc1)c1ccccc1 | 9.02 |
| CCCCCCCC[P+](CCCCCCCC)(CCCCCCCC)CCCCCCCC | 16.4 |
| COc1ccc2c3c1OC1C(=O)C=CC4C(C2)N(C)CCC314 (stereo unspecified) | 5.06 |
| COC(=O)NN=Cc1c[n+]([O-])c2ccccc2[n+]1[O-] | 5.82 |
| c1cncc(-c2nc3ccccc3[nH]2)c1 | 5.16 |
| OCCN(CCO)c1nc(N2CCCCC2)c2nc(N(CCO)CCO)nc(N3CCCCC3)c2n1 | 7.67 |
| CCCCCCCCCCC(C(=O)OC)[N+](C)(C)Cc1ccccc1 (stereo unspecified) | 11.2 |
| c1ccc(CC2=NCCN2)cc1 | 4.62 |
| CCOC(=O)c1ccc(O)c([N+](=O)[O-])c1 | 10.7 |
| C#CC1(O)CCC2C3CCc4cc(OC)ccc4C3CCC21C (stereo unspecified) | 14.5 |
| CCC1OC(=O)C(C)C(OC2CC(C)(OC)C(O)C(C)O2)C(C)C(OC2OC(C)CC(N(C)C)C2O)C(C)(O)CC(C)C(=O)C(C)C(O)C1(C)O (stereo unspecified) | 7.85 |
| CCCC[P+](CCCC)(CCCC)CC1OCCO1 | 8.76 |
| CCCCCCCCN | 6.9 |
| CN(C)CC1CCCCC1(O)c1cccc(O)c1 (stereo unspecified) | 5.39 |
| Cc1c(N)c(=O)n(-c2ccccc2)n1C | 4.78 |
| CCCCCCCCCCCCCC[N+](C)(C)Cc1ccccc1 | 12.8 |
| c1ccc2nc3ccccc3cc2c1 | 5.78 |

| Structure (SMILES) | LC retention time [min] |
| --- | --- |
| CC12CCC3C(CC=C4CC(O)CCC43C)C1CCC2=O (stereo unspecified) | 11.6 |
| CCOC(=O)C(C#N)=C(c1ccccc1)c1ccccc1 | 13.6 |
| CCCc1nc2c(C)cc(-c3nc4ccccc4n3C)cc2n1Cc1ccc(-c2ccccc2C(=O)O)cc1 | 8.86 |
| CNCC(c1ccc(OC)cc1)C1(O)CCCCC1 (stereo unspecified) | 6.44 |
| CNC(=C[N+](=O)[O-])NCCS(=O)Cc1ccc(CN(C)C)o1 (stereo unspecified) | 2.94 |
| CNCc1ccc(CSCCNC(=C[N+](=O)[O-])NC)o1 | 4.77 |
| CCNC(=O)c1cccc(C)c1 | 8.34 |
| CCSc1nc2ccccc2s1 | 13.7 |
| O=P(Oc1ccccc1)(Oc1ccccc1)Oc1ccccc1 | 14.1 |
| CC1(C)CC(O)CC(C)(C)N1O | 5.7 |
| CC(C)(C)P(=O)(O)O | 4.63 |
| NC(=O)N1c2ccccc2C(O)C(O)c2ccccc21 (stereo unspecified) | 6.66 |
| Oc1ccccc1-c1nc2ccccc2[nH]1 | 6.22 |
| CSc1ccc(O)cc1C | 9.8 |
| O=c1[nH]sc2ccccc12 | 6.23 |
| NP(=O)(c1ccccc1)c1ccccc1 | 7.41 |
| CC(=O)C1CCC2C3CCC4=CC(=O)CCC4(C)C3C(O)CC12C (stereo unspecified) | 10.3 |
| O=S(=O)(O)c1nc2ccccc2s1 | 6.5 |
| CC(=O)CCCCn1c(=O)c2c(ncn2C)n(C)c1=O | 6.77 |
| CCCC[N+](C)(CCCC)CCCC | 7.01 |
| CCCCCCCCCCCCOC(=O)c1cc(O)c(O)c(O)c1 | 16 |
| CC12CCC3c4ccc(O)cc4CCC3C1CCC2O (stereo unspecified) | 10.4 |
| CC(C(=O)O)c1cccc(Oc2ccccc2)c1 (stereo unspecified) | 11.8 |
| Cc1c(N(C)C)c(=O)n(-c2ccccc2)n1C | 4.71 |
| COc1cccc(C2(O)CCCCC2CN(C)C)c1 (stereo unspecified) | 6.21 |

| Structure (SMILES) | LC retention time [min] |
| --- | --- |
| Nc1nc2ccccc2[nH]1 | 4.79 |
| COC(=O)Nc1nc2ccc(Sc3ccccc3)cc2[nH]1 | 9.95 |
| CSc1nc(N)nc2nc[nH]c12 | 4.91 |
| NC(=O)N1c2ccccc2CCc2ccccc21 | 9.23 |
| CCC(CC)Nc1c([N+](=O)[O-])cc(C)c(C)c1[N+](=O)[O-] | 16.2 |
| CN1C2CCC1C(C(=O)O)C(OC(=O)c1ccccc1)C2 (stereo unspecified) | 5.64 |
| S=c1[nH]c2ccccc2o1 | 8.26 |
| CC(C)NCC(O)COc1ccc(CCOCC2CC2)cc1 (stereo unspecified) | 7.06 |
| CCCCCCCCCCCCCCCCCC[N+](C)(C)C | 14 |
| CCCCCCCCCCCCCCCC[N+](C)(C)Cc1ccccc1 | 13.9 |
| CC1(C)SC2C(NC(=O)C(N)c3ccc(O)cc3)C(=O)N2C1C(=O)O (stereo unspecified) | 4.71 |
| CN(CC=CC#CC(C)(C)C(=O)O)Cc1cccc2ccccc12 | 7.45 |
| CC(C)c1ccccc1OP(=O)(Oc1ccccc1)Oc1ccccc1 | 15.8 |
| COC(=O)c1ccc(O)cc1 | 7.59 |
| COc1cc(O)c(C(=O)c2ccccc2)cc1S(=O)(=O)O | 7.48 |
| c1ccc([P+](Cc2ccccn2)(c2ccccc2)c2ccccc2)cc1 | 8.34 |
| CCN1C=CN(C)C1 | 1.34 |
| NC(Cc1ccc(Oc2ccc(O)cc2)cc1)C(=O)O (stereo unspecified) | 5.62 |
| CCN(CC)C(=O)C(C#N)=Cc1cc(O)c(O)c([N+](=O)[O-])c1 | 9.38 |
| Cn1c(=O)c2c(ncn2C)n(C)c1=O | 5.51 |
| CC(C)c1ccc(OP(=O)(Oc2ccc(C(C)C)cc2)Oc2ccc(C(C)C)cc2)cc1 | 18.9 |
| CC(C)(C)P(C(C)(C)C)C(C)(C)C | 5.22 |
| O=C(c1ccccc1)c1ccc(O)cc1O | 11 |
| Cc1c(NC=O)c(=O)n(-c2ccccc2)n1C | 5.62 |
| CCCCP(=O)(CCCC)CCCC | 11.1 |

| Structure (SMILES) | LC retention time [min] |
| --- | --- |
| C[N+](C)(CCOc1ccccc1)Cc1ccccc1 | 7.14 |
| COC(=O)Nc1cccc(N)c1 | 4.29 |
| Cc1cc(NS(=O)(=O)c2ccc(NO)cc2)no1 | 6.77 |
| O=P(O)(c1ccccc1)c1ccccc1 | 7.24 |
| CCOCCOC(=O)Nc1ccc(C)c(NC(=O)OCCOCC)c1 | 9.91 |
| CCCCCCCCCCC(C(=O)OCCCCCC)[N+](C)(C)Cc1ccccc1 (stereo unspecified) | 13.6 |
| CNC(=O)ON=CC(C)(C)SC | 8.4 |
| ON(Cc1ccccc1)Cc1ccccc1 | 8.96 |
| O=C(NC1CCCCC1)NC1CCCCC1 | 10.8 |
| O=C(c1ccccc1)c1ccc2n1CCC2C(=O)O (stereo unspecified) | 9.5 |
| CNCCOC(c1ccccc1)c1ccccc1 | 7.56 |
| COc1cc(NS(=O)(=O)c2ccc(N)cc2)nc(OC)n1 | 8.09 |
| NC(=O)N1c2ccccc2CC(O)c2ccccc21 (stereo unspecified) | 7.19 |
| CC(CC(C)(C)C)CP(=O)(O)CC(C)CC(C)(C)C (stereo unspecified) | 14.4 |
| CC(=O)C1(O)CCC2C3CC(C)C4=CC(=O)CCC4(C)C3CCC21C (stereo unspecified) | 12.5 |
| CCC(C(=O)O)N1CCCC1=O (stereo unspecified) | 5.7 |
| CCCCC[N+](CCCCC)(CCCCC)CCCCC | 11.3 |
| CC(O)C(=O)Nc1ccccc1 (stereo unspecified) | 6.61 |
| Cc1ncc(CO)c(CO)c1O | 2.11 |
| Nc1ccn(C2CSC(C(=O)O)O2)c(=O)n1 (stereo unspecified) | 2.46 |
| CC(=O)Nc1ccc(C(=O)O)cc1 | 5.59 |
